Measurements taken from ChEMBL document CHEMBL5465560, “Selectivity Literature for EUbOPEN Chemogenomic Library” (2024).

What was measured:
[1] = target: cAMP-dependent protein kinase catalytic subunit alpha (Homo sapiens, UniProt P17612); experiment: Selectivity interaction (SelectScreen profiling (Invitrogen)) EUB0000607a PRKACA; settings: at 2 µM
[2] = target: T1, MAP/microtubule affinity-regulating kinase 4 (Homo sapiens) (UniProt Q96L34); experiment: Selectivity interaction (Kinase panel (Invitrogen)) EUB0000639a MARK4; settings: at 200 nM
T1 sequence (whole entry): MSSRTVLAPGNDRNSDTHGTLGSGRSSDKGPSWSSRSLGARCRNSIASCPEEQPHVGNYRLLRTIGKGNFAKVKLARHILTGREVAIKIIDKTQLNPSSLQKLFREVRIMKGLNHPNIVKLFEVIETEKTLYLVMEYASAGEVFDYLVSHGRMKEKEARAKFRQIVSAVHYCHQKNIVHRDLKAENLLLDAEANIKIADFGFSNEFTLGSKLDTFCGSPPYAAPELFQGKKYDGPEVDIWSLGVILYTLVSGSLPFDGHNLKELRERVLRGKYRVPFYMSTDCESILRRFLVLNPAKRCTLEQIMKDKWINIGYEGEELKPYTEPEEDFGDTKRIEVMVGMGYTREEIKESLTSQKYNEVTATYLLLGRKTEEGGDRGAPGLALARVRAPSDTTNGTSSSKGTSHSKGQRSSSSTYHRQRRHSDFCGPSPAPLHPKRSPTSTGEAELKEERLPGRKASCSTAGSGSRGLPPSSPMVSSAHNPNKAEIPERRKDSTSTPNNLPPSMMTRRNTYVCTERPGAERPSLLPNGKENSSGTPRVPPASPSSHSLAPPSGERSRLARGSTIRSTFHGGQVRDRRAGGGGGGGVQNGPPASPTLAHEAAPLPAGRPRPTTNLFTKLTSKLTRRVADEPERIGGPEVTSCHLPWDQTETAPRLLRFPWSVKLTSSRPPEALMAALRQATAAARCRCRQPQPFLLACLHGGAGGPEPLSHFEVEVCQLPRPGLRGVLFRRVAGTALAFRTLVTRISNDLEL

[3] = target: T2, Serine/threonine-protein kinase Sgk3 (Homo sapiens) (UniProt Q96BR1); experiment: Selectivity interaction (KinomeScan (DiscoverX)) EUB0000695a SGK3; settings: at 100 nM
T2 sequence (whole entry): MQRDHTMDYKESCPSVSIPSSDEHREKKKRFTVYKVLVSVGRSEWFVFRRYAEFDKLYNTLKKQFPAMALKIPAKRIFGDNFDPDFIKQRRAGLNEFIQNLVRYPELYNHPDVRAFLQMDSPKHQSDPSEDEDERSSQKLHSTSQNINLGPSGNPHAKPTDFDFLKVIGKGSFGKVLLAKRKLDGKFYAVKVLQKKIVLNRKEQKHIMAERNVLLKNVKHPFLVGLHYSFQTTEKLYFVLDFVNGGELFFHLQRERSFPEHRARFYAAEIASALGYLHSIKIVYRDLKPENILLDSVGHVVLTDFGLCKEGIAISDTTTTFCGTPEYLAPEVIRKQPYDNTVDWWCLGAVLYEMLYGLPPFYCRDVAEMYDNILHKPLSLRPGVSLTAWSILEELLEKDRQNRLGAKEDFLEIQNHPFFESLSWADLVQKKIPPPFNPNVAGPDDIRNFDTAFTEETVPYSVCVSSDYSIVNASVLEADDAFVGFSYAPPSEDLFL

[4] = target: T3, Tyrosine-protein kinase ZAP-70 (Homo sapiens) (UniProt P43403); experiment: Selectivity interaction (KinomeScan (DiscoverX)) EUB0000595a ZAP70; settings: at 10 µM
T3 sequence (whole entry): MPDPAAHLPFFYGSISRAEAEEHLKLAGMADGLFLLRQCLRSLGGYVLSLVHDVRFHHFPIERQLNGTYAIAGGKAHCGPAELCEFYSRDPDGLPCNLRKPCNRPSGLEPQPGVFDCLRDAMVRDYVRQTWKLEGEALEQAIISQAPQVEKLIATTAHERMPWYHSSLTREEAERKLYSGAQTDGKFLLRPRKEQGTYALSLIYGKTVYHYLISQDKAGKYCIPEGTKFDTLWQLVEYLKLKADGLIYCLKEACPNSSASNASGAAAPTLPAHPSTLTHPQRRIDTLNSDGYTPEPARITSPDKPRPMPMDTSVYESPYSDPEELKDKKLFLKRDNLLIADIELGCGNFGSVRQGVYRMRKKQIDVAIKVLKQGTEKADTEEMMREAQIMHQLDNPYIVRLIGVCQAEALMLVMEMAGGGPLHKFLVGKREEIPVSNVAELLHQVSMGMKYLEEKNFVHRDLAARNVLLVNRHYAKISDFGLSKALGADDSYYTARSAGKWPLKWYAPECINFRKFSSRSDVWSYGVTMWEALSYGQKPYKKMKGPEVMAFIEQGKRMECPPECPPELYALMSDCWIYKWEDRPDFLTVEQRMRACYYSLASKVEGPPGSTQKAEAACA

[5] = target: Sodium-dependent noradrenaline transporter (Homo sapiens, UniProt P23975); experiment: Selectivity interaction (Panel of kinases, GPCRs, ion channels and transporters (enzymatic assay)) EUB0000223bCl SLC6A2
[6] = target: T4, Discoidin domain-containing receptor 2 (Homo sapiens) (UniProt Q16832); experiment: Selectivity interaction (KinomeScan (DiscoverX)) EUB0000655a DDR2; settings: at 10 µM
T4 sequence (whole entry): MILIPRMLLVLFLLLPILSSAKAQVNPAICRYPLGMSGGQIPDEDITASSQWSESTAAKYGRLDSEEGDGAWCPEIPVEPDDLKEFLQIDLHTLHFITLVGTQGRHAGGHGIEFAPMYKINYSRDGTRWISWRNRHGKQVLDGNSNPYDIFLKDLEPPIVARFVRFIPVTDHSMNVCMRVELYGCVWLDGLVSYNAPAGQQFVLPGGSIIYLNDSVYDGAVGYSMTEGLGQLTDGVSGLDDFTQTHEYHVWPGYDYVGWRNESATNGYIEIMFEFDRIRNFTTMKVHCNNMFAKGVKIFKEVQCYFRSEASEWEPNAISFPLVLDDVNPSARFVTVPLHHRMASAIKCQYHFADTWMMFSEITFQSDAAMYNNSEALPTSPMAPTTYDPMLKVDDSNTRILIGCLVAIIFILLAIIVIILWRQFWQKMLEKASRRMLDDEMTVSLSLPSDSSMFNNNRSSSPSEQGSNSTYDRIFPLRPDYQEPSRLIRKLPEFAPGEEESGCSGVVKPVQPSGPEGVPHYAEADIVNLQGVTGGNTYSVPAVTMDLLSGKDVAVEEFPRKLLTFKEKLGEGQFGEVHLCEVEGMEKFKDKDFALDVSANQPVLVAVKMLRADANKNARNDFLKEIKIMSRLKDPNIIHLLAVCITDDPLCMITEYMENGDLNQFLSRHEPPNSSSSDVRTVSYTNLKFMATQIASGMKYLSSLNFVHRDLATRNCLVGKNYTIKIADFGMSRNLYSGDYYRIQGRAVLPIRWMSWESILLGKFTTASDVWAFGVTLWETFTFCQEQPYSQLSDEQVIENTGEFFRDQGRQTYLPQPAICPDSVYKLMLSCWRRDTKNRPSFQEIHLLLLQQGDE

Chain of Sodium-dependent noradrenaline transporter (P23975 whole entry, the tested form may be a part): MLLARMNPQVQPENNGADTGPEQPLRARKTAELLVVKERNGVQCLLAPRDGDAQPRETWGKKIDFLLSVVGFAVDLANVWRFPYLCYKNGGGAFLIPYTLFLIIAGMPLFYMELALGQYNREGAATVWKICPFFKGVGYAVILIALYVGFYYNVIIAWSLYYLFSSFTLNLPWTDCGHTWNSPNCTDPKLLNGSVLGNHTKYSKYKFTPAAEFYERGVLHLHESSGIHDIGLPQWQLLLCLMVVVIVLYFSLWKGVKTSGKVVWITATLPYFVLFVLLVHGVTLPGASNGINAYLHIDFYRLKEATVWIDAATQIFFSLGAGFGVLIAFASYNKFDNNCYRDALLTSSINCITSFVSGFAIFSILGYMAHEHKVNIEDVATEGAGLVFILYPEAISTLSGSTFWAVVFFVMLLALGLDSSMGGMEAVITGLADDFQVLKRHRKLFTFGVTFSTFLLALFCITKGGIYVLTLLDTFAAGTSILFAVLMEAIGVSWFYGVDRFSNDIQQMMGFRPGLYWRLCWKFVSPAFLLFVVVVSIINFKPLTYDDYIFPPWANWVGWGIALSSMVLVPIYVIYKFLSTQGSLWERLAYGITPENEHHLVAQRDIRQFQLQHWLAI

CNC(=O)Nc1ccc(-c2nc(N3CC4CCC(C3)O4)c3cnn(C4CCC5(CC4)OCCO5)c3n2)cc1
% of inhibition [1]: -3%

CC[C@@H]1[C@H](F)C(=O)N[C@@H]1COc1nccc2cc(C(N)=O)c(OC)cc12 [ZIMLOVISERTIB]
% of inhibition [2]: 14%

Cc1cc(F)c(C(=O)Nc2cccc(-c3nncn3C(C)C)n2)cc1-n1cnc(C2CC2)c1
% of control [3]: 100%

COCC(=O)NC/C=C/c1ccc2ncnc(Nc3ccc(Oc4ccc(C)nc4)c(C)c3)c2c1 [CP-724714]
% of control [4]: 100%

COc1cc(C(=O)N2CC[C@@H](O)[C@@H](N)C2)cc2nc(-c3cc4ccccc4n3CC3CC3)n(C)c12
pXC50 [5]: 4.7 M

CN(C)CCOc1ccc(-c2nc(-c3ccncc3)c(-c3ccc4c(c3)CC/C4=N\O)[nH]2)cc1
% of control [6]: 67%
